Counter-ions that a name gives are not always drawn.

This data set is described as follows: RP, Restek Raptor Biphenyl, 100 × 2.1 mm, 2.7 µm, 50 °C, 0.4 mL/min, estimated dead time 0.55 min; A: water + 0.1% formic acid, pH 3; B: methanol + 0.1% formic acid, pH 3; gradient (min/%B) 0/5 1.12/5 6.41/99.5 10.01/99.5. The conditions noted are these: stereoisomer not certain.

Take `O=C(O)CCCCCCCCCO` [10-HYDROXYDECANOATE]: the LC retention time is 4.92 min.

Consider `CCCCCCCCCCCCCC[n+]1cccc(S(=O)(=O)[O-])c1` [C14-APS], for which the LC retention time is 6.1 min.

Regarding `CC1(C)CCC(Cc2ccc(Cl)cc2)C1(O)Cn1cncn1` (configuration not stated) [Metconazole], the LC retention time was 6.09 min.

`CCCCCCCC[n+]1cccc(S(=O)(=O)[O-])c1` [C8-APS]: the LC retention time was 4.8 min.

`CC(CCC(=O)NCC(=O)O)C1CCC2C3CCC4CC(O)CCC4(C)C3CCC12C` (configuration not stated) [Glycolithocholic acid]: the LC retention time was 6.37 min.

In the case of `C#CCCCCCCCCCCCCCCCC(=O)O` [17-Octadecynoic acid], the LC retention time was 6.53 min.

`O=C(O)c1cc(O)ccc1O` [2,5-DIHYDROXYBENZOATE]: the LC retention time is 2.57 min.

For `C=CC(=O)O` [2-PROPENOATE], the LC retention time is 0.959 min.

Take `CC(CCC(=O)O)C1CCC2C3CCC4CC(O)CCC4(C)C3CC(O)C12C` (configuration not stated) [Deoxycholic acid]: the LC retention time is 6.37 min.

Regarding `O=Cc1c[nH]c2ccccc12` [Indole-3-carboxaldehyde], the LC retention time was 4.24 min.

`N#Cc1c[nH]cc1-c1cccc2c1OC(F)(F)O2` [Fludioxonil]: the LC retention time is 5.51 min.

Consider `CCCCCCCCCCCCCCCCCCC[n+]1cccc(S(=O)(=O)[O-])c1` [C19-APS], for which the LC retention time is 6.61 min.

Turning to `CC1NC(=O)NC1CCCCCC(=O)O` (configuration not stated) [DETHIOBIOTIN], the LC retention time was 4.21 min.

Turning to `Cc1c(=O)c(=O)c2c3c[nH]c4c(C)c(=O)c(=O)c(c5c[nH]c1c52)c43` [MELANIN], the LC retention time was 5.67 min.

Regarding `CCCCCCCCC=CCCCCCCCCCCCC(=O)O` [Erucic acid], the LC retention time was 6.84 min.

For the molecule `CCCCCCCCCCC[n+]1cccc(S(=O)(=O)[O-])c1` [C11-APS], the LC retention time is 5.61 min.

Consider `Cn1c(=O)[nH]c2ncn(C)c2c1=O` [PARAXANTHINE], for which the LC retention time was 3.54 min.

Consider `CC(C)CCCCCCCCCCCCC(=O)O` [Isopalmitic acid], for which the LC retention time is 6.54 min.

Take `CC(=O)NC(C)C(=O)O` (configuration not stated) [N-ACETYLALANINE]: the LC retention time was 1.05 min.

For the molecule `CC(=O)Oc1ccccc1` [PHENYL ACETATE], the LC retention time is 2.46 min.

Turning to `CCCCCCCCCCCC=CCCCCC(=O)O` [PETROSELINATE], the LC retention time is 6.63 min.

Take `CC(CCC(=O)O)C1CCC2C3C(OS(=O)(=O)O)CC4CC(O)CCC4(C)C3CC(O)C12C` (configuration not stated) [Cholic acid 7-sulfate]: the LC retention time was 5.85 min.

Consider `CNC(=O)c1cc(Cl)cc(C)c1NC(=O)c1cc(Br)nn1-c1ncccc1Cl` [Chlorantraniliprole], for which the LC retention time is 5.84 min.

For `O=C(O)C=Cc1c[nH]c2ccccc12` [3-Indoleacrylic acid], the LC retention time is 4.71 min.

As to `Cc1nn(-c2cc(NS(C)(=O)=O)c(Cl)cc2Cl)c(=O)n1C(F)F` [Sulfentrazone], the LC retention time was 5.29 min.

Regarding `COc1cc(C(O)C(=O)O)ccc1O` (racemic) [DL-4-Hydroxy-3-methoxymandelic acid], the LC retention time was 1.73 min.

Turning to `NCC(=O)CCC(=O)O` [5-AMINOLEVULINATE], the LC retention time is 1.05 min.

For the molecule `O=c1ccn(C2CC(O)C(COP(=O)(O)O)O2)c(=O)[nH]1` (configuration not stated) [DEOXYURIDINE-MONOPHOSPHATE], the LC retention time was 0.695 min.

`O=C(O)CCc1c[nH]c2ccccc12` [Indole-3-propionic acid]: the LC retention time was 4.66 min.

As for `CCCCCCCCCCCCCC(=O)OC(CC(=O)[O-])C[N+](C)(C)C` [Myristoyl-L-carnitine], the LC retention time is 5.74 min.

As for `CCCCC[n+]1cccc(S(=O)(=O)[O-])c1` [C5-APS], the LC retention time is 3.33 min.

For the molecule `CC(CC(=O)O)C1CCC2C3CCC4CC(O)CCC4(C)C3CC(O)C12C` (configuration not stated) [Nor-Desoxycholic Acid], the LC retention time was 6.24 min.

For the molecule `CCCCCCSCC(NC(=O)CCC(N)C(=O)O)C(=O)NCC(=O)O` (configuration not stated) [S-HEXYL-GLUTATHIONE], the LC retention time was 4.59 min.

Take `O=C(O)CC(O)C(=O)O` (configuration not stated) [MALATE]: the LC retention time is 0.676 min.

For the molecule `CN(C)C(=O)Nc1ccc(Cl)c(Cl)c1` [Diuron], the LC retention time was 5.22 min.

For the molecule `CCCCCCCCCCCC[n+]1cccc(S(=O)(=O)[O-])c1` [C12-APS], the LC retention time is 5.79 min.

As for `COc1ccc2[nH]cc(CCNC(C)=O)c2c1` [MELATONIN], the LC retention time is 4.57 min.

Regarding `CCCCCCC(O)CC=CCCCCCCCC(=O)O` (configuration not stated) [Ricinoleic acid], the LC retention time was 6.18 min.

Regarding `O=C(O)C(O)c1ccc(O)c(O)c1` (configuration not stated) [3,4 DIHYDROXYMANDELATE], the LC retention time is 0.822 min.

On to `Nc1ncnc2c1ncn2C1CC(O)C(COP(=O)(O)O)O1` (configuration not stated) [DEOXYADENOSINE MONOPHOSPHATE], for which the LC retention time was 0.818 min.

Take `CC(=O)NC(CC(N)=O)C(=O)O` (configuration not stated) [N-ACETYLASPARAGINE]: the LC retention time was 0.702 min.

`OCCc1c[nH]c2ccccc12` [INDOLE-3-ETHANOL]: the LC retention time is 4.06 min.

Take `O=C(O)CNC(=O)C=Cc1ccccc1` [N-(CINNAMOYL)GLYCINE]: the LC retention time was 4.42 min.

In the case of `NC(Cc1ccc(O)cc1)C(=O)O` (configuration not stated) [TYROSINE], the LC retention time was 0.796 min.

In the case of `CCCCCCCCCCCCCCCC(=O)O` [Palmitic acid], the LC retention time is 6.54 min.

With `Cc1cc(C(F)(C(F)(F)F)C(F)(F)F)ccc1NC(=O)c1cccc(I)c1C(=O)NC(C)(C)CS(C)(=O)=O` [Flubendiamide], the LC retention time was 5.97 min.

As for `CC1(C(=O)Nc2ccc(O)c(Cl)c2Cl)CCCCC1` [Fenhexamid], the LC retention time is 5.83 min.

As to `Cc1cc2nc3c(=O)[nH]c(=O)nc-3n(CC(O)C(O)C(O)COP(=O)(O)OP(=O)(O)OCC3OC(n4cnc5c(N)ncnc54)C(O)C3O)c2cc1C` (configuration not stated) [FAD], the LC retention time was 4.07 min.

For `CC(=O)N[C@@H](Cc1ccc(O)cc1)C(=O)O` [N-Acetyl-L-tyrosine], the LC retention time is 2.88 min.

As to `O=c1[nH]c(=O)c2ncn(C3OC(CO)C(O)C3O)c2[nH]1` (configuration not stated) [XANTHOSINE], the LC retention time was 1.47 min.

Regarding `CN(C)C(=O)Nc1cccc(C(F)(F)F)c1` [Fluometuron], the LC retention time was 4.92 min.

Consider `CC[n+]1cccc(S(=O)(=O)[O-])c1` [C2-APS], for which the LC retention time is 0.835 min.

Consider `O=C(Nc1ccccc1)Nc1cnns1` [Thidiazuron], for which the LC retention time was 4.75 min.

`CC(C)C(O)(CC(=O)O)C(=O)O` (configuration not stated) [2-Isopropylmalic acid]: the LC retention time was 2.76 min.

Turning to `Nc1nc2c(ncn2C2OC3COP(=O)(O)OC3C2O)c(=O)[nH]1` (configuration not stated) [CYCLIC GMP], the LC retention time is 1.14 min.

As to `CC1=C(C(=O)Nc2ccccc2)SCCO1` [Carboxin], the LC retention time was 5.79 min.

Turning to `CC(CCC(=O)NCCS(=O)(=O)O)C1CCC2C3CCC4CC(O)CCC4(C)C3CCC12C` (configuration not stated) [Taurolithocholic acid], the LC retention time is 6.47 min.

On to `O=C(O)c1cc(=O)c2cccc(O)c2[nH]1` [Xanthurenic acid], for which the LC retention time was 3.14 min.

For the molecule `O=C(O)CCCCCCCC(=O)O` [Azelaic acid], the LC retention time was 4.48 min.

For `CC(CCC(=O)NCC(=O)O)C1CCC2C3CC(O)C4CC(O)CCC4(C)C3CCC12C` (configuration not stated) [Glycohyodeoxycholic acid], the LC retention time was 5.79 min.

For the molecule `O=C(O)CCC(=O)O` [Succinic acid], the LC retention time was 0.909 min.

For `C=CCNC(=O)c1c([Si](C)(C)C)sc(C)c1C` [Silthiofam], the LC retention time is 6 min.

`O=C(O)c1c[nH]c2ccccc12` [Indole-3-carboxylic acid]: the LC retention time was 4.08 min.

Regarding `CCCCCCCCC[n+]1cccc(S(=O)(=O)[O-])c1` [C9-APS], the LC retention time is 5.13 min.

Consider `O=C(O)c1ccc(C(=O)O)o1` [2,5-Furandicarboxylic acid], for which the LC retention time is 1.51 min.

On to `CC(=O)NCCCC(=O)O` [4-ACETAMIDOBUTANOATE], for which the LC retention time is 1.42 min.

As to `CCCCCCCCCCCCCCC[n+]1cccc(S(=O)(=O)[O-])c1` [C15-APS], the LC retention time is 6.23 min.

For `O=C(O)CCCCC1SCC2NC(=O)NC21` (configuration not stated) [BIOTIN], the LC retention time was 4 min.

For the molecule `O=c1ccn(C2CC(O)C(CO)O2)c(=O)[nH]1` (configuration not stated) [DEOXYURIDINE], the LC retention time is 1.22 min.

With `COP(=O)(NC(C)=O)SC` (configuration not stated) [Acephate], the LC retention time is 2.34 min.

With `O=C(O)C=C(CC(=O)O)C(=O)O` [cis-Aconitic acid], the LC retention time was 0.818 min.

For `O=S(=O)(O)Oc1c[nH]c2ccccc12` [INDOXYL SULFATE], the LC retention time was 2.52 min.

`O=[N+]([O-])c1cc(C(F)(F)F)c(Cl)c([N+](=O)[O-])c1Nc1ncc(C(F)(F)F)cc1Cl` [Fluazinam]: the LC retention time is 6.33 min.

`CCCCCCCCCCCCCC(O)CC(=O)OC(CC(=O)[O-])C[N+](C)(C)C` [[(3R)-3-Hydroxyhexadecanoyl]-L-carnitine]: the LC retention time is 5.77 min.

Turning to `O=C(O)CC[C@H](O)C(=O)O` [L-α-Hydroxyglutaric acid disodium salt], the LC retention time was 0.746 min.

On to `CC(C)(C)C(O)C(=Cc1ccc(Cl)cc1Cl)n1cncn1` (configuration not stated) [Diniconazole], for which the LC retention time was 6.05 min.

Regarding `CCC=CCC=CCC=CCC=CC/C=C\CCCC(=O)O` [cis-5,8,11,14,17-Eicosapentaenoic acid], the LC retention time is 6.56 min.

Consider `CC(CCC(=O)O)CC(=O)O` (configuration not stated) [3-Methyladipic acid], for which the LC retention time was 3.25 min.

Turning to `Nc1nc2c(ncn2C2CC(O)C(CO)O2)c(=O)[nH]1` (configuration not stated) [DEOXYGUANOSINE], the LC retention time was 1.59 min.

For the molecule `C=CCC(C)C(=O)O` (configuration not stated) [2-Methyl-4-pentenoic acid], the LC retention time is 3.16 min.

As for `O=C(O)C(=O)Cc1ccccc1` [Phenylpyruvic acid], the LC retention time is 2.88 min.

In the case of `O=C(O)CCCCCC(=O)O` [6-CARBOXYHEXANOATE], the LC retention time is 3.35 min.

Values taken from the RepoRT retention time repository.
